Experimental data as given in patent US5475010A, “7'-amino-naphthazarin antibiotic derivatives” (Gruppo Lepetit S.p.A., priority 1991, dated 1995).
≈ marks a conversion by molar mass, not a printed value. Counter-ions that a name gives are not always drawn. Like-named read-outs stand apart in the source and are kept apart here.

Assays:
[1] = tested on: Staphilococcus aureus Tour; assay: MIC by broth microdilution, Staphylococcus aureus Tour; format: cell-based; conditions: Iso-Sensitest broth, 37° C., 20-24 h, air
[2] = tested on: Staphilococcus haemolyticus (clin. isolate); assay: MIC by broth microdilution, Staphylococcus haemolyticus; format: cell-based
[3] = tested on: Streptococcus pneumonieae UC 41; assay: MIC by broth microdilution, Streptococcus pneumoniae; format: cell-based
[4] = tested on: Bacteroides fragiles ATCC 9689; assay: MIC by broth microdilution, Bacteroides fragilis; format: cell-based; conditions: ATCC9689, Table 2, internal code 1010, approx. 10^4 cfu/ml, Wilkins-Chalgren broth, 37° C., 48 h, N2-CO2-H2 (80:10:10)
[5] = tested on: Propionibacterium acnes ATCC 6919; assay: MIC by broth microdilution, Propionibacterium acnes; format: cell-based; conditions: Cutibacterium acnes
[6] = tested on: Escherichia coli SKF 12140; assay: MIC by broth microdilution, Escherichia coli; format: cell-based
[7] = tested on: Pseudomonas aeruginosa ATCC 10145; assay: MIC by broth microdilution, Pseudomonas aeruginosa; format: cell-based; conditions: ATCC10145, Table 2, internal code 4, approx. 10^4 cfu/ml, Iso-Sensitest broth, 37° C., 20-24 h, air
[8] = tested on: Proteus vulgaris X19H ATCC 881; assay: MIC by broth microdilution, Proteus vulgaris; format: cell-based; conditions: ATCC881
[9] = tested on: Candida albicans SKF 2270; assay: MIC by broth microdilution, Candida albicans; format: cell-based; conditions: Table 2; internal code 145; approx. 10^4 cfu/ml; buffered Yeast Nitrogen Base broth + glucose + L-asparagine; 37° C., 20-24 h, air
[10] = tested on: Tricophyton mentagrophytes; assay: MIC by broth microdilution, Trichophyton mentagrophytes; format: cell-based; conditions: 72 h
[11] = tested on: Staphilococcus epidermidis ATCC 12228; assay: MIC by broth microdilution, Staphylococcus epidermidis; format: cell-based
[12] = tested on: Streptococcus pyogenes C 203; assay: MIC by broth microdilution, Streptococcus pyogenes; format: cell-based
[13] = tested on: Enterococcus faecalis ATCC 7080; assay: MIC by broth microdilution, Enterococcus faecalis; format: cell-based
[14] = tested on: Neisseria gonorrhoeae ISM 68/126; assay: MIC by broth microdilution, Neisseria gonorrhoeae; format: cell-based; conditions: ISM68/126, Table 2, internal code 997, approx. 10^4 cfu/ml, GC Base broth + 1% IsoVitaleX, 37° C., 48 h, 5% CO2
[15] = tested on: Haemophilus influenzae type b ATCC 19418; assay: MIC by broth microdilution, Haemophilus influenzae; format: cell-based; conditions: ATCC19418, Table 2, internal code 970, approx. 10^4 cfu/ml, Brain Heart infusion broth + 1% Supplement C, 37° C., 48 h, 5% CO2
[16] = tested on: Clostridium perfringens ISS 30543; assay: microbe, parasite or virus in culture; format: cell-based; conditions: ISS30543, 48 h
[17] = tested on: Gram-positive and Gram-negative bacteria; conditions: in vitro, known / U.S. Pat. No. 3,914,257, cited from earlier work
[18] = tested on: fungi, including filamentous fungi (e.g., Trichophyton mentarophytes) and yeasts (e.g., Candida albicans); conditions: in vitro; U.S. Pat. No. 3,914,257; cited from earlier work
[19] = Table 2, internal code 165, + 30% bovine serum, read-out: MIC
[20] = UC41, Table 2, internal code 44, approx. 10^4 cfu/ml, Todd Hewitt broth, 37° C., 20-24 h, air, read-out: MIC
[21] = ATCC6919, Table 2, internal code 1014, approx. 10^4 cfu/ml, Wilkins-Chalgren broth, 37° C., 48 h, N2-CO2-H2 (80:10:10), read-out: MIC
[22] = Table 2, internal code 165, inoculum 10^6 cfu/ml
[23] = Table 2, internal code 165, inoculum approx. 10^4 cfu/ml
[24] = ATCC12228, Table 2, internal code 147, approx. 10^4 cfu/ml, Iso-Sensitest broth, 37° C., 20-24 h, air, read-out: MIC
[25] = Table 2, internal code 602, approx. 10^4 cfu/ml, Iso-Sensitest broth, 37° C., 20-24 h, air, read-out: MIC
[26] = ATCC7080, Table 2, internal code 149, approx. 10^4 cfu/ml, Iso-Sensitest broth, 37° C., 20-24 h, air, read-out: MIC
[27] = Table 2, internal code 165, + 30% bovine serum
[28] = Table 2, internal code 634, 1% (v/v) suspension of mycelia and conidia, YM broth, 30° C., air, read-out: MIC

Structure (SMILES)	MIC [2]	MIC [3, 20]	MIC [4]	MIC [5, 21]	MIC [7]	MIC [8]	MIC [9]	MIC [10]	MIC [1, 22]	MIC [1, 23]	MIC [11, 24]	MIC [2, 25]	MIC ([12]; C203)	MIC [14]	MIC ([6]; SKF12140)	MIC [1, 27]	MIC ([3]; UC41)	MIC ([13]; ATCC7080)	also measured
COC(=O)c1cc2cc3c(c(O)c2c(=O)o1)OC1(Cc2c(O)c4c(c(O)c2O1)C(=O)C(NCCN(C)C)=CC4=O)CC3O (centres unmarked) [Example 6, 7'-(2-dimethylaminoethylen)amino purpuromycin hydrochloride]	0.5 µg/mL	0.06 µg/mL	0.5 µg/mL	0.06 µg/mL	128 µg/mL	128 µg/mL	64 µg/mL	128 µg/mL	–	–	–	–	–	–	–	–	–	–	MIC [1, 19]: 0.25 µg/mL; MIC ([6]; SKF12140, Table 2, internal code 47, approx. 10^4 cfu/ml, Iso-Sensitest broth, 37° C., 20-24 h, air, read-out: MIC): 16 µg/mL
COC(=O)c1cc2cc3c(c(O)c2c(=O)o1)OC1(Cc2c(O)c4c(c(O)c2O1)C(=O)C(NCc1ccccc1)=CC4=O)CC3O (centres unmarked) [Example 8]	–	0.06 µg/mL (≈ 0.0978 µM)	–	–	> 128 µg/mL	> 128 µg/mL	–	> 128 µg/mL	1 µg/mL (≈ 1.63 µM)	0.5 µg/mL (≈ 0.815 µM)	0.13 µg/mL (≈ 0.212 µM)	0.13 µg/mL (≈ 0.212 µM)	1 µg/mL (≈ 1.63 µM)	0.25 µg/mL	> 128 µg/mL	–	–	–	MIC [1, 19]: 32 µg/mL; MIC [13, 26]: 4 µg/mL (≈ 6.52 µM)
CCCNC1=CC(=O)c2c(O)c3c(c(O)c2C1=O)OC1(C3)CC(O)c2cc3cc(C(=O)OC)oc(=O)c3c(O)c2O1 (centres unmarked) [Example 12, 7'-propylamino purpuromycin]	–	–	0.03 µg/mL (≈ 0.0531 µM)	–	128 µg/mL (≈ 226 µM)	128 µg/mL (≈ 226 µM)	64 µg/mL	128 µg/mL (≈ 226 µM)	0.03 µg/mL (≈ 0.0531 µM)	0.03 µg/mL (≈ 0.0531 µM)	0.016 µg/mL (≈ 0.0283 µM)	0.06 µg/mL (≈ 0.106 µM)	–	0.06 µg/mL	> 128 µg/mL	2 µg/mL	0.03 µg/mL (≈ 0.0531 µM)	–	MIC ([12]; C203, Table 2, internal code 49, approx. 10^4 cfu/ml, Todd Hewitt broth, 37° C., 20-24 h, air, read-out: MIC): 0.13 µg/mL (≈ 0.23 µM); MIC [13, 26]: 0.06 µg/mL (≈ 0.106 µM); MIC [15]: 0.13 µg/mL
CNC1=CC(=O)c2c(O)c3c(c(O)c2C1=O)OC1(C3)CC(O)c2cc3cc(C(=O)OC)oc(=O)c3c(O)c2O1 (centres unmarked) [Example 14, 7'-methylamino purpuromycin]	–	0.016 µg/mL (≈ 0.0298 µM)	0.03 µg/mL (≈ 0.0558 µM)	0.008 µg/mL (≈ 0.0149 µM)	> 128 µg/mL	> 128 µg/mL	2 µg/mL	–	–	–	0.008 µg/mL (≈ 0.0149 µM)	0.016 µg/mL (≈ 0.0298 µM)	0.03 µg/mL (≈ 0.0558 µM)	0.06 µg/mL	> 128 µg/mL	0.25 µg/mL	–	0.03 µg/mL (≈ 0.0558 µM)	MIC ([1]; Table 2, internal code 165, inoculum 10^6 cfu/ml, read-out: MIC): 0.06 µg/mL (≈ 0.112 µM); MIC ([1]; Table 2, internal code 165, inoculum approx. 10^4 cfu/ml, read-out: MIC): 0.016 µg/mL (≈ 0.0298 µM); MIC [15]: 0.13 µg/mL; MIC [10, 28]: ≤ 0.13 µg/mL
COC(=O)c1cc2cc3c(c(O)c2c(=O)o1)OC1(CC3)Cc2c(O)c3c(c(O)c2O1)C(=O)C(N)=CC3=O (centres unmarked) [Example 30, 7'-Amino-γ-rubromycin]	0.016 µg/mL (≈ 0.0315 µM)	–	0.06 µg/mL (≈ 0.118 µM)	–	> 128 µg/mL	> 128 µg/mL	16 µg/mL	–	–	0.016 µg/mL (≈ 0.0315 µM)	–	–	0.03 µg/mL (≈ 0.0591 µM)	–	> 128 µg/mL	1 µg/mL	0.016 µg/mL (≈ 0.0315 µM)	0.03 µg/mL (≈ 0.0591 µM)	MIC ([11]; ATCC12228): 0.016 µg/mL (≈ 0.0315 µM); MIC ([5]; ATCC6919, 48 h): 0.016 µg/mL (≈ 0.0315 µM); MIC [10, 28]: 16 µg/mL (≈ 31.5 µM)
CNC1=CC(=O)c2c(O)c3c(c(O)c2C1=O)OC1(CCc2cc4cc(C(=O)OC)oc(=O)c4c(O)c2O1)C3 (centres unmarked) [Example 32, 7'-methylamino γ-rubromycin]	0.016 µg/mL (≈ 0.0307 µM)	–	0.06 µg/mL (≈ 0.115 µM)	0.004 µg/mL (≈ 0.00767 µM)	> 128 µg/mL	> 128 µg/mL	–	> 128 µg/mL	0.03 µg/mL (≈ 0.0575 µM)	0.016 µg/mL (≈ 0.0307 µM)	–	–	0.03 µg/mL (≈ 0.0575 µM)	–	> 128 µg/mL	0.25 µg/mL	0.016 µg/mL (≈ 0.0307 µM)	0.03 µg/mL (≈ 0.0575 µM)	MIC ([11]; ATCC12228): 0.016 µg/mL (≈ 0.0307 µM); MIC [16]: 0.016 µg/mL (≈ 0.0307 µM)
COC(=O)c1cc2cc3c(c(O)c2c(=O)o1)OC1(Cc2c(O)c4c(c(O)c2O1)C(=O)C(OC)=CC4=O)CC3O (centres unmarked) [Purpuromycin, purpuromycin]	–	–	–	–	–	–	–	–	–	–	–	–	–	–	–	–	–	–	antimicrobial activity against Gram-positive and Gram-negative bacteria [17]: known antimicrobial agents against Gram-positive and Gram-negative bacteria; antimicrobial activity against Gram-positive and Gram-negative bacteria ([17]; listed as purpuromycin): active in vitro; activity against fungi [18]: active in vitro
COC(=O)c1cc2cc3c(c(O)c2c(=O)o1)OC1(CC3)Cc2c(O)c3c(c(O)c2O1)C(=O)C(OC)=CC3=O (centres unmarked) [γ-Rubromycin]	–	–	–	–	–	–	–	–	–	–	–	–	–	–	–	–	–	–	antimicrobial activity against Gram-positive and Gram-negative bacteria [17]: known antimicrobial agents against Gram-positive and Gram-negative bacteria
